Source: US20060276468A1, “Wood preservative formulations comprising Imazalil” (priority 2005, published 2006)
“Also recorded” adds a separate entry of the source.

Test system: decay organisms
Test: soil contact veneer exposure test: dip-treated Scots pine sapwood veneers half buried in damp compost, pulled by hand weekly until failure
Conditions: for average time for failure to occur (half life): biocide alone: 0.6% dichlorophen, 0.2% triclosan, 0.8% fenarimol, 0.8% PHMB, 0.4% imazalil sulfate, 6 veneers; for Half life for fungicide at 2% active ingredient (ai) / estimated expected half life for 1% fungicide plus 1% Imazalil sulfate / Half life for 1% fungicide plus 1% Imazalil sulfate: Example 3; for half life, Low level with 0.8% Imazalil sulfate: 0.8% fungicide plus 0.8% imazalil sulfate, IMS; for synergy of the combination with imazalil sulfate: actual versus expected average time to failure; for half life, Low level with 0.8% Imazalil: 0.8% fungicide plus 0.8% imazalil
Source text: The present invention also provides a simple exposure test for evaluating the wood preserving abilities of candidate ingredients or compositions. This exposure test is based on the premise that small dimension timber test specimens tend to fail more quickly than larger ones in soil contact situations.
It is preferable that the thickness of the veneers be greater than 0.1 mm, as veneers of lesser thickness can often be pulled apart by hand without undergoing exposure to decay organisms. Veneers which are thicker than 0.4 may take an excessive amount of time to fail the exposure test. In one embodiment, the thickness of the veneers is about 0.2 mm and the wood is the sapwood of the Scots pine (Pinus sylvestris). Other woods and thicknesses can be used. […] An example of convenient width and length dimensions are 15×50 mm. However, width and length are not critical provided they are kept consistent within a test, although very large or small length or width dimensions may be difficult to handle.
Accordingly, the test of the present invention comprises testing the integrity of a veneer after exposure to a decay-inducing environment. In one embodiment, this environment is damp compost in which decay organisms are present and water is present at just above the water holding capacity of the compost. If desired, other media can be used, and the test can be conducted at water contents which are below, at, or above the water-holding capacity of the media.
In general, the integrity of the veneer is inversely related to the length of exposure to the decay promoting environment. The integrity of the veneer can be tested by applying a force to the veneer and noting whether or not the veneer breaks. Thus, if wood preservative agents are applied to the veneers, these veneers would be expected to withstand longer exposure to the environment without breaking compared to control veneers without breaking.
The force applied to the veneers is preferably a force which pulls the two ends in opposite directions. The force can be applied by the use of an instrument or manually. If there is significant decay the veneer will break, generally near the junction between the portion submerged in the decay accelerating medium and the portion exposed to air. If the force is applied manually, it is preferable that the same individual conduct the test at the various exposure time points.
The veneers were cut such that both late wood and early wood were present in each veneer. The following biocides were tested: imazalil sulfate, dichlorophen, fenarimol, triclosan, and PHMB. To allow the mixing together of the five selected biocides in any combination the biocides were formulated such that they could be mixed together (all the percentages are mass/mass):
Test solutions were prepared and sets of veneers were dip treated such that there were 6 replicate veneers for each treatment under investigation. Additionally six veneers were dip treated in deionised water to act as water controls. […] Plastic containers (approximately 350×220 mm by at least 60 mm high) were part filled with John Innes Number 2 potting compost at a little above its water holding capacity. The veneers for this particular test were placed in six rows within a container such that approximately half the veneer was below the compost and half above. The veneers were placed in the compost such than those given a particular treatment were distributed throughout the container and were not grouped together. The containers, compost and veneers were weighed then incubated at about 30° C. and near 100% relative humidity in an incubator. Each week during the test the assembly was reweighed and deionised water added to bring it back to its original mass. After 3 weeks each veneer was examined in turn. It was held between the fore finger and thumb at each end and pulled to see if it could be broken. If it could be pulled apart a failure was recorded.

[1] = Example 9, 1.4% BBIT or 0.4% imazalil sulfate alone, formulations which can be mixed together
[2] = Example 14, 0.6% dichlorophen or 0.4% imazalil sulfate alone
[3] = Example 15, 2.0% alone, solutions in IMS (alcohol)
[4] = Example 16, 0.8% alone, solutions in IMS (alcohol)
[5] = Example 16, 1.6% alone, solutions in IMS (alcohol)
[6] = unnumbered table, solutions in IMS
[7] = Example 10, additive expectation
[8] = Example 10, solutions in IMS (alcohol)
[9] = unnumbered table, additive expectation
[10] = Example 5, additive expectation
[11] = Example 5, solutions in acetone
[12] = Example 7, solutions in acetone
[13] = Example 8, solutions in IMS (alcohol)

1H-imidazole,1-(2-(2,4-dichlorophenyl)-2-(2-propenyloxy)ethyl)-, sulfate [Imazalil sulfate]
average time for failure to occur (half life) (Example 1): 5.17 weeks
average time for failure to occur, No Quat (Example 2, 0.60% imazalil sulfate alone (Table 3; text b187 says 0.4%)): 5.67 weeks
Half life for fungicide at 2% active ingredient (ai) (solutions in IMS (alcohol)): 6.00 weeks
Half life for fungicide at 2% ai (Example 4, Table 8 title: solutions in acetone (Table 7: deionised water)): 7.17 weeks
half life, No addition [1]: 5.50 weeks
Calculated half life (Example 12, Fluid 1, 0.25% imazalil sulfate in deionized water): 5.00 weeks
Calculated half life (Example 12, Fluid 2, 0.50% imazalil sulfate in deionized water): 6.50 weeks
Calculated half life (Example 12, Fluid 3, 1.00% imazalil sulfate in deionized water): 6.83 weeks
Calculated half life (Example 12, Fluid 4, 1.50% imazalil sulfate in deionized water): 8.17 weeks
half life, No addition [2]: 5.2 weeks
half life, No addition [3]: 7.83 weeks
Calculated half life [4]: 7.00 weeks
Calculated half life [5]: 8.00 weeks
half life, High level (1.6%) (solutions in IMS): 5.83 weeks
half life, Low level (0.8%) (solutions in IMS): 5.00 weeks
half life, High level (1.6%) [6]: 7.00 weeks
half life, Low level (0.8%) [6]: 5.67 weeks

OC(c1ccc(Cl)cc1)(c1cncnc1)c1ccccc1Cl (racemic) [Fenarimol, (±)-2,4′-dichloro-α-(pyrimidin-5-yl)benzhydryl alcohol]
half life, Low level with 0.8% Imazalil sulfate: 6.67 weeks
average time for failure to occur (half life), combination with imazalil sulfate (Example 1, 0.3% dichlorophen, 0.1% triclosan, 0.4% fenarimol or 0.4% PHMB, each plus 0.2% imazalil sulfate): 6.67 weeks
estimated expected average time for failure, combination with imazalil sulfate (Example 1, additive expectation, midway between the two single biocides): (6.17) weeks
average time for failure to occur (half life) (Example 1): 7.17 weeks
synergy of the combination with imazalil sulfate: positive synergy
half life, High level (1.6%) (solutions in IMS): 5.00 weeks
half life, Low level (0.8%) (solutions in IMS): 4.50 weeks

CC(Cc1ccc(C(C)(C)C)cc1)CN1C[C@@H](C)O[C@@H](C)C1 (mixture of isomers) [Fenpropimorph, (±)-cis-4-[3-(4-tert-butylphenyl)-2-methylpropyl]-2,6-dimethyl=morpholine]
estimated expected half life for 1% fungicide plus 1% Imazalil sulfate (additive expectation): 5.34 weeks
Half life for 1% fungicide plus 1% Imazalil sulfate (solutions in IMS (alcohol)): 5.67 weeks
Half life for fungicide at 2% active ingredient (ai) (solutions in IMS (alcohol)): 4.67 weeks
half life, Low level with 0.8% Imazalil (Example 10, IMS (alcohol)): 5.83 weeks
estimated expected half life, Low level with 0.8% Imazalil [7]: (5.17 weeks)
half life, High level (1.6%) [8]: 4.17 weeks
half life, Low level (0.8%) [8]: 3.67 weeks

CCCCn1sc2ccccc2c1=O [BBIT, N-butyl-1,2-benzisothiazolin-3-one]
half life, With Imazalil sulfate (Example 9, 0.7% BBIT plus 0.2% imazalil sulfate): 7.33 weeks
half life, No addition [1]: 8.33 weeks
estimated expected half life, With Imazalil sulfate (Example 9, additive expectation): {6.92 weeks}

OB(O)O [Boric acid]
half life, Low level with 0.8% Imazalil sulfate (unnumbered table): 5.33 weeks
expected half life, Low level with 0.8% Imazalil sulfate [9]: {5.57 weeks}
half life, High level (1.6%) [6]: 4.50 weeks
half life, Low level (0.8%) [6]: 3.83 weeks

N#Cc1c(Cl)c(Cl)c(Cl)c(C#N)c1Cl [Chlorothalonil, tetrachloroisophthalonitrile]
estimated expected half life for 1% fungicide plus 1% Imazalil [10]: {9.92 weeks}
Half life for 1% fungicide plus 1% Imazalil [11]: 10.67 weeks
Half life for fungicide at 2% ai [11]: 12.17 weeks

CC(C1CC1)C(O)(Cn1cncn1)c1ccc(Cl)cc1 (stereo not drawn) [Cyproconazole, α-(4-chlorophenyl)-α-(1-cyclopropylethyl)-=1H-1,2,4-triazol-1-ethanol]
estimated expected half life, Low level (0.8%) plus 0.8% Imazalil (Example 7, additive expectation): {5.42 weeks}
half life, High level (1.6%) [12]: 4.67 weeks
half life, Low level (0.8%) [12]: 4.17 weeks
half life, Low level (0.8%) plus 0.8% Imazalil [12]: 6.17 weeks
half life, Low level with 0.8% Imazalil (Example 10, IMS (alcohol)): 6.17 weeks
estimated expected half life, Low level with 0.8% Imazalil [7]: (5.42 weeks)
half life, High level (1.6%) [8]: 4.67 weeks
half life, Low level (0.8%) [8]: 4.17 weeks

CCCCCCCCCC[N+](C)(C)CCCCCCCCCC.[Cl-] [DDAC, didecyl dimethyl ammonium chloride]
half life, Low level with 0.8% Imazalil sulfate: 5.50 weeks
average time for failure to occur, quat with Imazalil sulfate (Example 2, 0.18% active quat plus 0.30% imazalil sulfate (Table 3; text b187 says 0.2%)): 5.50 weeks
average time for failure to occur, Quat Only (Example 2, 0.36% active quat in deionised water): 4.17 weeks
estimated expected half life for 1% fungicide plus 1% Imazalil sulfate (additive expectation): 5.50 weeks
Half life for 1% fungicide plus 1% Imazalil sulfate (solutions in IMS (alcohol)): 6.50 weeks
Half life for fungicide at 2% active ingredient (ai) (solutions in IMS (alcohol)): 5.00 weeks
synergy of the combination with imazalil sulfate: evidence of synergy
expected half life, Low level with 0.8% Imazalil sulfate (additive expectation): {5.58 weeks}
half life, High level (1.6%) (solutions in IMS): 5.33 weeks
half life, Low level (0.8%) (solutions in IMS): 5.00 weeks

Oc1ccc(Cl)cc1Cc1cc(Cl)ccc1O [Dichlorophen, 2,2′-methylenebis[4-chlorophenol]]
average time for failure to occur (half life) (Example 1): 9.50 weeks
estimated expected half life for 1% fungicide plus 1% Imazalil sulfate (additive expectation): 12.92 weeks
Half life for 1% fungicide plus 1% Imazalil sulfate (solutions in IMS (alcohol)): 15.33 weeks
Half life for fungicide at 2% active ingredient (ai) (solutions in IMS (alcohol)): 19.83 weeks
half life, With Imazalil sulfate (Example 14, 0.3% dichlorophen plus 0.2% imazalil sulfate): 11.2 weeks
half life, No addition [2]: 9.5 weeks
expected half life, With Imazalil sulfate (Example 14, additive expectation): {7.4 weeks}
half life, With Imazalil sulfate (Example 15, 1.0% dichlorophen plus 1.0% imazalil sulfate, IMS (alcohol)): 19.67 weeks
half life, No addition [3]: 17.00 weeks
expected half life, With Imazalil sulfate (Example 15, additive expectation): {12.42 weeks}
Calculated half life [4]: 11.33 weeks
Calculated half life (Example 16, 0.8% dichlorophen plus 0.8% imazalil sulfate, IMS (alcohol)): 13.00 weeks
expected half life (Example 16, 0.8% dichlorophen plus 0.8% imazalil sulfate, additive expectation): {11.25 weeks}
Calculated half life [5]: 14.50 weeks
synergy of the combination with imazalil sulfate: positive synergy; also recorded: exceeded the expected value

CCCC1COC(Cn2cncn2)(c2ccc(Cl)cc2Cl)O1 (centres unmarked) [Propiconazole, 1-[[2-(2,4-dichlorophenyl)-4-propyl-1,3-dioxolan-2-yl]=methyl]-1H-1,2,4-triazole]
estimated expected half life for 1% fungicide plus 1% Imazalil [10]: {6.59 weeks}
Half life for 1% fungicide plus 1% Imazalil [11]: 7.33 weeks
Half life for fungicide at 2% ai [11]: 5.50 weeks
half life, Low level with 0.8% Imazalil (Example 10, IMS (alcohol)): 6.17 weeks
estimated expected half life, Low level with 0.8% Imazalil [7]: (5.84 weeks)
half life, High level (1.6%) [8]: 5.50 weeks
half life, Low level (0.8%) [8]: 5.33 weeks

COC(=O)N(OC)c1ccccc1COc1ccn(-c2ccc(Cl)cc2)n1 [Pyraclostrobin, methyl N-{2-[1-(4-chlorophenyl)-1H-pyrazol-3-yloxymethyl]phenyl}(N-methoxy)carbamate]
estimated expected half life for 1% fungicide plus 1% Imazalil sulfate (additive expectation): 6.09 weeks
Half life for 1% fungicide plus 1% Imazalil sulfate (solutions in IMS (alcohol)): 6.50 weeks
Half life for fungicide at 2% active ingredient (ai) (solutions in IMS (alcohol)): 6.17 weeks

CCCCCCCCn1sc(Cl)c(Cl)c1=O [RH 287, 4,5-dichloro-2-n-octyl-3(2H)-isothiazolone]
estimated expected half life for 1% fungicide plus 1% Imazalil [10]: {15.09 weeks}
Half life for 1% fungicide plus 1% Imazalil [11]: 19.33 weeks
Half life for fungicide at 2% ai [11]: 22.50 weeks

O=C(Nc1ccccc1)c1ccccc1O [Salicylanilide, 2-hydroxy-N-phenylbenzamide]
half life, Low level with 0.8% Imazalil sulfate (unnumbered table): 6.50 weeks
expected half life, Low level with 0.8% Imazalil sulfate [9]: {6.34 weeks}
half life, High level (1.6%) [6]: 5.67 weeks
half life, Low level (0.8%) [6]: 4.83 weeks

CCCCCCCCCCCCN(CCCN)CCCN [Triameen Y 12D-30, N,N-bis(3-aminopropyl)dodeclamine]
estimated expected half life, Low level (0.8%) plus 0.8% Imazalil (Example 8, additive expectation): {5.75 weeks}
half life, High level (1.6%) [13]: 5.00 weeks
half life, Low level (0.8%) [13]: 4.33 weeks
half life, Low level (0.8%) plus 0.8% Imazalil [13]: 6.00 weeks
